pIC50: −log10 of the molar value.

Usually pIC50 stands for −log10 of the IC50, conventionally taken in molar units. The IC50 is the concentration needed to halve the response being measured. A lower IC50 goes with higher potency.

What all share (assay type): biochemical
The target in one assay is Human plasma kallikrein (Homo sapiens (Human), UniProt P03952). The assay is described as follows: Determination of the IC50 for plasma kallikrein (fluorogenic substrate H-DPro-Phe-Arg-AFC). To be noted: 37° C., read-out: IC50 (human PKaI). The procedure:
Determination of the IC50 for Plasma Kallikrein
Human plasma kallikrein (Protogen) was incubated at 37° C. with the fluorogenic substrate H-DPro-Phe-Arg-AFC and various concentrations of the test compound. Residual enzyme activity (initial rate of reaction) was determined by measuring the change in […] at 410 nm and the IC50 value for the test compound was determined.

The target of a further assay is Factor XIIa (Homo sapiens (Human), UniProt P00748). The assay is described as follows: Determination of enzyme selectivity, Factor XIIa. To be noted: substrate at Km concentration. On the procedure:
Determination of Enzyme Selectivity
Human serine protease enzymes plasmin, thrombin, trypsin, Factor Xa and Factor XIIa were assayed for enzymatic activity using an appropriate fluorogenic substrate. Protease activity was measured by monitoring the accumulation of liberated fluorescence from the substrate over 5 minutes. The linear rate of fluorescence increase per minute was expressed as percentage (%) activity. The Km for the cleavage of each substrate was determined by standard transformation of the Michaelis-Menten equation.

A further assay concerns the target Human KLK1 (Homo sapiens (Human), UniProt P06870). Nature of the assay: Determination of the IC50 for KLK1 (fluorogenic substrate H-DVal-Leu-Arg-AFC). To be noted: 37° C. The procedure:
Determination of the IC50 for KLK1
Human KLK1 (Callbiochem) was incubated at 37° C. with the fluorogenic substrate H-DVal-Leu-Arg-AFC and various concentrations of the test compound. Residual enzyme activity (initial rate of reaction) was determined by measuring the change in […] at 410 nm and the IC50 value for the test compound was determined.

Human KLK1, sequence (P06870 25-262): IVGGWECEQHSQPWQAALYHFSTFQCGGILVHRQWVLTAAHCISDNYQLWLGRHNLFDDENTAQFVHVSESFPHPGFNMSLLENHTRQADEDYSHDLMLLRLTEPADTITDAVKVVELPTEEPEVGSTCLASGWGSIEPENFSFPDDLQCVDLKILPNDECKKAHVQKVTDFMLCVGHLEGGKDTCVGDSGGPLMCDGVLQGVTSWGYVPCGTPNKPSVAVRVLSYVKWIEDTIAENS
Human plasma kallikrein, sequence (P03952 391-638): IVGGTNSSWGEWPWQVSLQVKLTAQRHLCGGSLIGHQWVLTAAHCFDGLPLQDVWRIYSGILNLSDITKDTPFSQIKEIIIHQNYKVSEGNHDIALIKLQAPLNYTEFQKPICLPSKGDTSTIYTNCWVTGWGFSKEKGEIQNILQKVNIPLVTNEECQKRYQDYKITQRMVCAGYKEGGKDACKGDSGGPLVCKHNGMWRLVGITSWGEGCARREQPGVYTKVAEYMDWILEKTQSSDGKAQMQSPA
Human plasma kallikrein, sequence (P03952 20-390 partner): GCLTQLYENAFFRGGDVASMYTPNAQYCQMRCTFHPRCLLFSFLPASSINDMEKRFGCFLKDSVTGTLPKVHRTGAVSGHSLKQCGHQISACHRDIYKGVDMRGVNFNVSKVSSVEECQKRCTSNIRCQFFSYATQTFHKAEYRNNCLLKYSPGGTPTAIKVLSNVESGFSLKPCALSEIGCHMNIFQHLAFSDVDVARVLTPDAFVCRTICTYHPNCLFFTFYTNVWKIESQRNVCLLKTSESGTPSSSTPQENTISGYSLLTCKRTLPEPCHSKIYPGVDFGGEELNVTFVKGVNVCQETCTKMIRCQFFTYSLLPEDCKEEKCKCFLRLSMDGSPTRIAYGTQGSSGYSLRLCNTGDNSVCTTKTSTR
Factor XIIa, sequence (P00748 373-615): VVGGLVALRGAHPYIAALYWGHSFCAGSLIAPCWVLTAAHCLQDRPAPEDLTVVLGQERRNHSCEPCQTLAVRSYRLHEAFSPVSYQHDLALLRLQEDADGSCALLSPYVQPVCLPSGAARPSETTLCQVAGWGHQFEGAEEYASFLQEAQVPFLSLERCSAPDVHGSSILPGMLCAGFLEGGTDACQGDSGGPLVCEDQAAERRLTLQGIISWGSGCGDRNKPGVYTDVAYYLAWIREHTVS

For the molecule `Nc1nccc2cc(CNC(=O)c3cn(Cc4ccc(N5CC[C@H](F)C5)nc4)nc3C(F)(F)F)ccc12` [Example 60, 1-[6-((S)-3-Fluoro-pyrrolidin-1-yl)-pyridin-3-ylmethyl]-3-trifluoromethyl-1H-pyrazole-4-carboxylic acid (1-amino-isoquinolin-6-ylmethyl)-amide], the results for the pIC50 on Human plasma kallikrein and at Human KLK1 were 8.02 and 5.02, respectively. Besides, the IC50 on Factor XIIa was above 10000 nM.
In the same order, the values of `CCOc1ccc(Cn2cc(C(=O)NCc3ccc4c(N)nccc4c3)c(C(F)(F)F)n2)cn1` [Example 55, 1-(6-Ethoxy-pyridin-3-ylmethyl)-3-trifluoromethyl-1H-pyrazole-4-carboxylic acid (1-amino-isoquinolin-6-ylmethyl)-amide] are 7.10, 5.42 and above 10000 nM.
As for `Cc1cc(C(=O)NCc2ccc3ccnc(N)c3c2)c(C)n1Cc1csc(-c2ccccc2)n1` [Example 2, 2,5-Dimethyl-1-(2-phenyl-thiazol-4-ylmethyl)-1H-pyrrole-3-carboxylic acid (1-amino-isoquinolin-7-ylmethyl)-amide], the pIC50 at Human plasma kallikrein was 5.68; at Human KLK1 it was below 5.00. Moreover, the IC50 on Factor XIIa is above 10000 nM.
In the same order, the values of `C[C@H]1CCCN1c1ccc(Cn2cc(C(=O)NCc3ccc4c(N)nccc4c3)c(C(F)(F)F)n2)cn1` [Example 62, 1-[6-((S)-2-Methyl-pyrrolidin-1-yl)-pyridin-3-ylmethyl]-3-trifluoromethyl-1H-pyrazole-4-carboxylic acid (1-amino-isoquinolin-6-ylmethyl)-amide] are 7.87, below 5.00 and above 10000 nM.
In the same order, the values of `Nc1nccc2cc(CNC(=O)c3cnn(Cc4ccc(COc5cccc(F)n5)cc4)c3)ccc12` [Example 50, 1-[4-(6-Fluoro-pyridin-2-yloxymethyl)-benzyl]-1H-pyrazole-4-carboxylic acid (1-amino-isoquinolin-6-ylmethyl)-amide] are 6.69, below 4.40 and above 40000 nM.
Taken in the same sequence, the figures for `Cc1cnn(Cc2ccc(Cn3cc(C(=O)NCc4cccc5[nH]ccc45)c(C(F)(F)F)n3)cc2)c1` [Example 123, 1-[4-(4-Methyl-pyrazol-1-ylmethyl)-benzyl]-3-trifluoromethyl-1H-pyrazole-4-carboxylic acid (1H-indol-4-ylmethyl)-amide] were 6.26, below 5.00 and above 10000 nM.
Take `Nc1nccc2cc(CNC(=O)c3cnn(Cc4cccc(Oc5ncccc5F)c4)c3)ccc12` [Example 48, 1-[3-(3-Fluoro-pyridin-2-yloxy)-benzyl]-1H-pyrazole-4-carboxylic acid (1-amino-isoquinolin-6-ylmethyl)-amide]: the pIC50 at Human plasma kallikrein was 6.09; at Human KLK1 it was 5.36. Also, the IC50 against Factor XIIa is above 40000 nM.
In the same order, the values of `Nc1nccc2cc(CNC(=O)c3cnn(Cc4cccc(Oc5ccccc5)n4)c3)ccc12` [Example 47, 1-(6-Phenoxy-pyridin-2-ylmethyl)-1H-pyrazole-4-carboxylic acid (1-amino-isoquinolin-6-ylmethyl)-amide] are 5.69, 4.80 and above 40000 nM.
Taken in the same sequence, the figures for `C[C@@H]1CCN(c2cc(Cn3cc(C(=O)NCc4ccc5c(N)nccc5c4)c(C(F)(F)F)n3)ccn2)C1` [Example 67, 1-[2-((R)-3-Methyl-pyrrolidin-1-yl)-pyridin-4-ylmethyl]-3-trifluoromethyl-1H-pyrazole-4-carboxylic acid (1-amino-isoquinolin-6-ylmethyl)-amide] were 6.97, 5.05 and above 10000 nM.
Taken in the same sequence, the figures for `Cc1cnn(Cc2ccc(Cn3cc(C(=O)NCc4ccc5c(N)nccc5c4)c(C(F)F)n3)cc2)c1` [Example 39, 3-Difluoromethyl-1-[4-(4-methyl-pyrazol-1-ylmethyl)-benzyl]-1H-pyrazole-4-carboxylic acid (1-amino-isoquinolin-6-ylmethyl)-amide] were 8.77, 5.09 and above 10000 nM.
For the molecule `Cc1cc(C(=O)NCc2ccc3c(N)nccc3c2)c(C)n1Cc1ccc(Cn2ccccc2=O)cc1` [Example 44, 2,5-Dimethyl-1-[4-(2-oxo-2H-pyridin-1-ylmethyl)-benzyl]-1H-pyrrole-3-carboxylic acid (1-amino-isoquinolin-6-ylmethyl)-amide], the pIC50 was 8.41 at Human plasma kallikrein and 5.15 at Human KLK1. The same molecule registered an IC50 against Factor XIIa above 10000 nM.
In the same order, the values of `Cc1cnn(Cc2ccc(Cn3cc(C(=O)NCc4ccc5[nH]ncc5c4)c(C(F)(F)F)n3)cc2)c1` [Example 111, 1-[4-(4-Methyl-pyrazol-1-ylmethyl)-benzyl]-3-trifluoromethyl-1H-pyrazole-4-carboxylic acid (1H-indazol-5-ylmethyl)-amide] are 6.66, 5.14 and above 10000 nM.
In the case of `Cc1cnn(Cc2ccc(Cn3cc(C(=O)NCc4cnc5[nH]ccc5c4)nn3)cc2)c1` [Example 115, 1-[4-(4-Methyl-pyrazol-1-ylmethyl)-benzyl]-1H-[1,2,3]triazole-4-carboxylic acid (1H-pyrrolo[2,3-b]pyridin-5-ylmethyl)-amide], the figures for the pIC50 at Human plasma kallikrein and at Human KLK1 were 6.75 and below 5.00, respectively. At Factor XIIa, this molecule displayed a concentration for half-maximal inhibition (IC50) above 10000 nM.
As for `C[C@H]1CCN(c2ccc(Cn3cc(C(=O)NCc4ccc5c(N)nccc5c4)c(C(F)(F)F)n3)cn2)C1` [Example 59, 1-[6-((S)-3-Methyl-pyrrolidin-1-yl)-pyridin-3-ylmethyl]-3-trifluoromethyl-1H-pyrazole-4-carboxylic acid (1-amino-isoquinolin-6-ylmethyl)-amide], the pIC50 on Human plasma kallikrein is 8.23; at Human KLK1 it was 5.40. At Factor XIIa, this molecule displayed an IC50 above 1000 nM.
On to `Cc1cnn(Cc2ccc(Cn3cc(C(=O)NCc4ccc5c(N)nccc5c4)c(N)n3)cc2)c1` [Example 37, 3-Amino-1-[4-(4-methyl-pyrazol-1-ylmethyl)-benzyl]-1H-pyrazole-4-carboxylic acid (1-amino-isoquinolin-6-ylmethyl)-amide], for which the values for the pIC50 at Human plasma kallikrein and on Human KLK1 were 9.17 and 5.45, respectively. This molecule also registered an IC50 against Factor XIIa above 10000 nM.
For `Nc1nccc2cc(CNC(=O)c3cnn(Cc4ccnc(N5CCCC5)c4)c3C(F)(F)F)ccc12` [Example 51, 1-(2-Pyrrolidin-1-yl-pyridin-4-ylmethyl)-5-trifluoromethyl-1H-pyrazole-4-carboxylic acid (1-amino-isoquinolin-6-ylmethyl)-amide], the pIC50 is 6.24 at Human plasma kallikrein and 4.93 at Human KLK1. The IC50 at Factor XIIa is above 40000 nM.
Taken in the same sequence, the figures for `Cc1cnn(Cc2ccc(Cn3cc(C(=O)NCc4cnc5[nH]ccc5c4)c(C4CC4)n3)cc2)c1` [Example 120, 3-Cyclopropyl-1-[4-(4-methyl-pyrazol-1-ylmethyl)-benzyl]-1H-pyrazole-4-carboxylic acid (1H-pyrrolo[2,3-b]pyridin-5-ylmethyl)-amide] were 6.93, below 5.00 and above 10000 nM.
In the same order, the values of `Nc1nccc2cc(CNC(=O)c3cnn(Cc4cc5cc(OC(F)(F)F)ccc5[nH]4)c3)ccc12` [Example 52, 1-(5-Trifluoromethoxy-1H-indol-2-ylmethyl)-1H-pyrazole-4-carboxylic acid (1-amino-isoquinolin-6-ylmethyl)-amide] are 6.52, below 4.40 and above 40000 nM.
In the same order, the values of `CCn1c(C(=O)NCc2ccc3c(N)nccc3c2)cc(C)c1Cc1ccc(Cn2cc(C)cn2)cc1` [Example 28, 1-Ethyl-4-methyl-5-[4-(4-methyl-pyrazol-1-ylmethyl)-benzyl]-1H-pyrrole-2-carboxylic acid (1-amino-isoquinolin-6-ylmethyl)-amide] are 7.20, below 5.00 and above 10000 nM.
For `O=C(NCc1cnc2[nH]ccc2c1)c1cnn(Cc2ccc(COc3cccc(F)n3)cc2)c1` [Example 109, 1-[4-(6-Fluoro-pyridin-2-yloxymethyl)-benzyl]-1H-pyrazole-4-carboxylic acid (1H-pyrrolo[2,3-b]pyridin-5-ylmethyl)-amide], the results for the pIC50 at Human plasma kallikrein and on Human KLK1 were 5.38 and below 4.40, respectively. At Factor XIIa, the IC50 is above 40000 nM.
Taken in the same sequence, the figures for `Cc1cnn(Cc2ccc(Cn3cc(C(=O)NCc4cc5cc[nH]c5nc4C)nn3)cc2)c1` [Example 116, 1-[4-(4-Methyl-pyrazol-1-ylmethyl)-benzyl]-1H-[1,2,3]triazole-4-carboxylic acid (6-methyl-1H-pyrrolo[2,3-b]pyridin-5-ylmethyl)-amide] were 6.29, below 5.00 and above 10000 nM.
`Cc1cnn(Cc2ccc(Cn3cc(C(=O)NCc4ccc5[nH]ccc5c4)c(C(F)(F)F)n3)cc2)c1` [Example 112, 1-[4-(4-Methyl-pyrazol-1-ylmethyl)-benzyl]-3-trifluoromethyl-1H-pyrazole-4-carboxylic acid (1H-indol-5-ylmethyl)-amide]: the figures for the pIC50 on Human plasma kallikrein and against Human KLK1 were 7.22 and below 5.00, respectively. The molecule further returned an IC50 against Factor XIIa above 10000 nM.

The values above are taken from patent US9533987B2, “Heterocyclic derivates” (KALVISTA PHARMACEUTICALS LIMITED, priority 2013, dated 2017).
